The test has as its target rat PGT (Rattus norvegicus (Rat), UniProt Q00910). The test is described as follows: [3H]PGE2 uptake inhibition in MDCK cells stably transfected with rat PGT (percent inhibition and IC50). As to conditions: for Inh (% of Ctl) 1 μM: 1 μM compound; for Inh (% of Ctl) 10 μM: 10 μM compound; for IC50: [3H]PGE2 uptake, MDCK cells stably transfected with rat PGT; for Inh (% of Ctl) 5 μM: 5 μM compound; for Inh (% of Ctl) 0.5 μM: 0.5 μM compound. The class given is cell-based. As for the experimental part:
MDCK cells stably transfected with rat PGT (Endo et al., 2002) were seeded at 15-20% confluence on 24-well plates. The day on which the cells were seeded was considered day 1. PGE2 uptake experiments were conducted on day 4. All of the PGE2 uptake experiments were conducted at room temperature. On day 4, cells were washed twice with Waymouth buffer (135 mM NaCl, 13 mM H-Hepes, 13 mM Na-Hepes, 2.5 mM CaCl2, 1.2 mM MgCl2, 0.8 mM MgSO4, 5 mM KCl, and 28 mM D-glucose). Then 200 μL of Waymouth buffer containing [^3H]PGE2 (purchased from Perkin Elmer) was added to each well. At the designed time, the uptake of [^3H]PGE2 was stopped by aspiration of uptake buffer; this was followed by immediate washing twice with 500 μL of chilled Waymouth buffer. Cells were then lysed with 100 μL lysis buffer containing 0.25% SDS and 0.05 N NaOH. 1.5 mL of scintillation solution was added to each well, and intracellular [^3H]PGE2 was counted by MicroBeta Counter.
For preliminary testing of the compounds, 20 μL of Waymouth buffer containing the compound was added to each well; this was immediately followed by the addition of 180 μL of Waymouth buffer containing [^3H]PGE2. In each well, the total volume of uptake medium was 200 μL. Organic compounds were first dissolved in EtOH and then diluted in Waymouth buffer. The percent inhibition of [^3H]PGE2 uptake by compounds was calculated as [(uptakevehicle−uptakeinhibitor)÷(uptakevehicle)]×100.
IC50 was calculated by fitting an equation of y=m1−m1*(m0/(m2+m0)).

What is called IC50 is the midpoint of a concentration-inhibition curve.

With `O=C(NCCOCCOCCNc1nc(Nc2ccccc2)nc(Nc2ccc(O)cc2)n1)c1cccs1` [compound 39], for the setting “inhibition of [3H]PGE2 uptake”, the “Inh (% of Ctl) 1 μM” value is given as 42.9 % of Ctl and the “Inh (% of Ctl) 10 μM” value was 86.2 % of Ctl.
For the compound `O=C(NCCOCCOCCNc1nc(Nc2ccccc2)nc(Nc2ccc(O)cc2)n1)c1ccc(-c2ccccc2)cc1` [compound 40], under “inhibition of [3H]PGE2 uptake”, the “Inh (% of Ctl) 1 μM” value is on record as 16.3 % of Ctl and the “Inh (% of Ctl) 10 μM” value is listed as 46.9 % of Ctl.
Taken in the same sequence, the figures for `CC(=O)NCCOCCOCCNc1nc(Nc2ccccc2)nc(Nc2ccc(O)cc2)n1` [compound 41] were 0.3 % of Ctl and 6.6 % of Ctl.
For `O=C(NCCOCCOCCNc1nc(Nc2ccccc2)nc(Nc2ccc(O)cc2)n1)Nc1ccccc1` [compound 42], in that order: 22.8 % of Ctl and 57.6 % of Ctl.
Take `COC(=O)CCCCCCNC(=O)c1ccc(Nc2nc(NCCOCCOCCNC(=O)c3ccccc3)nc(Nc3ccc(O)cc3)n2)cc1` [compound 43]: the half-inhibitory concentration (IC50) came out at 1300 nM. Further, where the note is “inhibition of [3H]PGE2 uptake”, the “Inh (% of Ctl) 1 μM” value is 34.8 % of Ctl and the “Inh (% of Ctl) 10 μM” value is reported as 84.1 % of Ctl.
Taken in the same sequence, the figures for `CCCCCCNC(=O)c1ccc(Nc2nc(NCCOCCOCCNC(=O)c3ccccc3)nc(Nc3ccc(O)cc3)n2)cc1` [compound 44] were 760 nM, 65.0 % of Ctl and 77.5 % of Ctl.
With `NCCOCCOCCNc1nc(Nc2ccccc2)nc(Nc2ccc(O)cc2)n1` [compound 45], under “inhibition of [3H]PGE2 uptake”, the “Inh (% of Ctl) 1 μM” value was 5.0 % of Ctl and the “Inh (% of Ctl) 10 μM” value is 12.9 % of Ctl.
Take `NS(=O)(=O)c1ccc(Nc2nc(NCCOCCOCCNC(=O)c3ccccc3)nc(Nc3ccc(O)cc3)n2)cc1` [compound 46]: under “inhibition of [3H]PGE2 uptake”, the “Inh (% of Ctl) 1 μM” value is recorded as 4.1 % of Ctl and the “Inh (% of Ctl) 10 μM” value is listed as 32.4 % of Ctl.
For `COC(=O)COCCOCCNC(=O)c1ccc(Nc2nc(NCCOCCOCCNC(=O)c3ccccc3)nc(Nc3ccc(O)cc3)n2)cc1` [compound 47], in that order: 22.6 % of Ctl and 76.5 % of Ctl.
Take `O=C(O)CCCCCCNC(=O)c1ccc(Nc2nc(NCCOCCOCCNC(=O)c3ccccc3)nc(Nc3ccc(O)cc3)n2)cc1` [compound 48]: where the note is “inhibition of [3H]PGE2 uptake”, the “Inh (% of Ctl) 1 μM” value was 14.2 % of Ctl and the “Inh (% of Ctl) 10 μM” value was 62.8 % of Ctl.
For `COC(=O)COCCOCCNc1nc(Nc2ccccc2)nc(Nc2ccc(O)cc2)n1` [compound 49], in that order: 1.7 % of Ctl and 12.5 % of Ctl.
Taken in the same sequence, the figures for `COC(=O)CCCCCCNc1nc(Nc2ccccc2)nc(Nc2ccc(O)cc2)n1` [compound 50] were 9.3 % of Ctl and 15.1 % of Ctl.
`O=C(O)COCCOCCNc1nc(Nc2ccccc2)nc(Nc2ccc(O)cc2)n1` [compound 51]: for the setting “inhibition of [3H]PGE2 uptake”, the “Inh (% of Ctl) 1 μM” value was 17.4 % of Ctl and the “Inh (% of Ctl) 10 μM” value is reported as 29.8 % of Ctl.
For `O=C(O)CCCCCCNc1nc(Nc2ccccc2)nc(Nc2ccc(O)cc2)n1` [compound 52], in that order: 0.1 % of Ctl and 1.8 % of Ctl.
As to `O=C(NCCOCCOCCNc1nc(Nc2ccccc2)nc(Nc2ccc3cn[nH]c3c2)n1)c1ccccc1` [compound 53], the IC50 was determined as 4040 nM. Further, under “inhibition of [3H]PGE2 uptake”, the “Inh (% of Ctl) 1 μM” value is on record as 65.2 % of Ctl, the “Inh (% of Ctl) 5 μM” value is given as 83.4 % of Ctl and the “Inh (% of Ctl) 10 μM” value is 86.4 % of Ctl.
Regarding `O=C(NCCOCCOCCNc1nc(Nc2ccccc2)nc(Nc2ccc(-c3nnn[nH]3)cc2)n1)c1ccccc1` [compound 54], under “inhibition of [3H]PGE2 uptake”, the “Inh (% of Ctl) 1 μM” value is listed as 33.7 % of Ctl and the “Inh (% of Ctl) 10 μM” value is 52.2 % of Ctl.
For `CCCCCCNc1nc(Nc2ccccc2)nc(Nc2ccc(O)cc2)n1` [compound 55], in that order: 12.7 % of Ctl and 26.1 % of Ctl.
For `O=C(NCCOCCOCCNc1nc(Nc2ccccc2)nc(Nc2ccc(O)c(Cl)c2)n1)c1ccccc1` [compound 56], in that order: 38.0 % of Ctl and 80.5 % of Ctl.
For `O=C(O)Cc1ccc(Nc2nc(NCCOCCOCCNC(=O)c3ccccc3)nc(Nc3ccccc3)n2)cc1` [compound 57], inhibition was half-maximal at 5570 nM (IC50). Moreover, where the note is “inhibition of [3H]PGE2 uptake”, the “Inh (% of Ctl) 1 μM” value is listed as 27.4 % of Ctl, the “Inh (% of Ctl) 5 μM” value is listed as 29.5 % of Ctl and the “Inh (% of Ctl) 10 μM” value is 56.6 % of Ctl.
With `O=C(O)c1ccc(Nc2nc(NCCOCCOCCNC(=O)c3ccccc3)nc(Nc3ccccc3)n2)cc1` [compound 58], for the setting “inhibition of [3H]PGE2 uptake”, the “Inh (% of Ctl) 1 μM” value is on record as 16.25 % of Ctl, the “Inh (% of Ctl) 5 μM” value is recorded as 41.0 % of Ctl and the “Inh (% of Ctl) 10 μM” value was 52.5 % of Ctl.
`O=C(NCCOCCNc1nc(Nc2ccccc2)nc(Nc2ccc(O)cc2)n1)c1ccccc1` [compound 59]: the IC50 turned out to be 2460 nM. Moreover, under “inhibition of [3H]PGE2 uptake”, the “Inh (% of Ctl) 1 μM” value is 36.8 % of Ctl and the “Inh (% of Ctl) 10 μM” value is 75.8 % of Ctl.
With `COC(=O)Cc1ccc(Nc2nc(NCCOCCOCCNC(=O)c3ccccc3)nc(Nc3ccccc3)n2)cc1` [compound 60], under “inhibition of [3H]PGE2 uptake”, the “Inh (% of Ctl) 1 μM” value is given as 7.2 % of Ctl and the “Inh (% of Ctl) 10 μM” value was 34.5 % of Ctl.
For `COC(=O)c1ccc(Nc2nc(NCCOCCOCCNC(=O)c3ccccc3)nc(Nc3ccccc3)n2)cc1` [compound 61], in that order: 7.5 % of Ctl and 46.1 % of Ctl.
Taken in the same sequence, the figures for `O=C(NCCCCCCNc1nc(Nc2ccccc2)nc(Nc2ccc(O)cc2)n1)c1ccccc1` [compound 62] were 20.4 % of Ctl and 50.1 % of Ctl.
For `O=C(NCCCCCCCNc1nc(Nc2ccccc2)nc(Nc2ccc(O)cc2)n1)c1ccccc1` [compound 63], in that order: 11.0 % of Ctl and 44.1 % of Ctl.
The compound `O=C(NCCOCCOCCNc1nc(Nc2ccc(C(=O)NCc3ccccc3)cc2)nc(Nc2ccc3[nH]ncc3c2)n1)c1ccccc1` [compound 64] had a half-maximal inhibitory concentration (IC50) of 115 nM. Moreover, where the note is “inhibition of [3H]PGE2 uptake”, the “Inh (% of Ctl) 0.5 μM” value is given as 15.5 % of Ctl, the “Inh (% of Ctl) 1 μM” value is given as 71.6 % of Ctl, the “Inh (% of Ctl) 5 μM” value is recorded as 77.2 % of Ctl and the “Inh (% of Ctl) 10 μM” value is on record as 90.2 % of Ctl.
`CCCCCCNC(=O)c1ccc(Nc2nc(NCCOCCOCCNC(=O)c3ccccc3)nc(Nc3ccc4[nH]ncc4c3)n2)cc1` [compound 65] returned a half-maximal inhibitory concentration (IC50) of 1380 nM. Under “inhibition of [3H]PGE2 uptake”, the “Inh (% of Ctl) 0.5 μM” value was 18.4 % of Ctl, the “Inh (% of Ctl) 1 μM” value was 66.4 % of Ctl, the “Inh (% of Ctl) 5 μM” value is 84.0 % of Ctl and the “Inh (% of Ctl) 10 μM” value was 90.0 % of Ctl.
Consider `CC(C)(NC(=O)c1ccc(Nc2nc(NCCOCCOCCNC(=O)c3ccccc3)nc(Nc3ccc(O)cc3)n2)cc1)c1ccccc1` [compound 66], for which, for the setting “inhibition of [3H]PGE2 uptake”, the “Inh (% of Ctl) 0.5 μM” value is 10.9 % of Ctl and the “Inh (% of Ctl) 5 μM” value is 64.4 % of Ctl.
Consider `O=C(NCCOCCOCCNc1nc(Nc2ccc(O)cc2)nc(Nc2ccc(C(=O)NCc3cccnc3)cc2)n1)c1ccccc1` [compound 67], for which, for the setting “inhibition of [3H]PGE2 uptake”, the “Inh (% of Ctl) 0.5 μM” value is 13.4 % of Ctl and the “Inh (% of Ctl) 5 μM” value is 76.1 % of Ctl.
Taken in the same sequence, the figures for `CN(Cc1ccccc1)C(=O)c1ccc(Nc2nc(NCCOCCOCCNC(=O)c3ccccc3)nc(Nc3ccc(O)cc3)n2)cc1` [compound 68] were 15.0 % of Ctl and 70.8 % of Ctl.
`O=C(NCCOCCOCCNc1nc(Nc2ccc(O)cc2)nc(Nc2ccc(C(=O)OCc3ccccc3)cc2)n1)c1ccccc1` [compound 69]: half-maximal inhibition (IC50) was put at 890 nM. Moreover, under “inhibition of [3H]PGE2 uptake”, the “Inh (% of Ctl) 0.5 μM” value is given as 24.9 % of Ctl and the “Inh (% of Ctl) 5 μM” value was 83.2 % of Ctl.
Regarding `O=C(NCCOCCOCCNc1nc(Nc2ccc(O)cc2)nc(Nc2ccc(C(=O)NCc3ccccn3)cc2)n1)c1ccccc1` [compound 70], the half-inhibitory concentration (IC50) is 1050 nM. For the setting “inhibition of [3H]PGE2 uptake”, the “Inh (% of Ctl) 0.5 μM” value is recorded as 21.2 % of Ctl and the “Inh (% of Ctl) 5 μM” value is on record as 84.0 % of Ctl.
For the compound `O=C(NCCOCCOCCNc1nc(Nc2ccc(O)cc2)nc(Nc2ccc(C(=O)NCc3ccncc3)cc2)n1)c1ccccc1` [compound 71], under “inhibition of [3H]PGE2 uptake”, the “Inh (% of Ctl) 0.5 μM” value is reported as 16.7 % of Ctl and the “Inh (% of Ctl) 5 μM” value is recorded as 78.4 % of Ctl.
As for `O=C(NCCOCCOCCNc1nc(Nc2ccccc2)nc(Nc2ccc(O)cc2)n1)c1ccccc1C(F)(F)F` [compound 72], where the note is “inhibition of [3H]PGE2 uptake”, the “Inh (% of Ctl) 1 μM” value is recorded as 19.7 % of Ctl, the “Inh (% of Ctl) 5 μM” value was 66.1 % of Ctl and the “Inh (% of Ctl) 10 μM” value is given as 75.3 % of Ctl.
Regarding `COC(=O)[C@H](NC(=O)c1ccc(Nc2nc(NCCOCCOCCNC(=O)c3ccccc3)nc(Nc3ccc(O)cc3)n2)cc1)c1ccccc1` [compound 73], the “Inh (% of Ctl) 2.5 μM” value (2.5 μM compound, inhibition of [3H]PGE2 uptake) was 38.9 % of Ctl. Also, the “Inh (% of Ctl) 5 μM” value (inhibition of [3H]PGE2 uptake) was 75.3 % of Ctl.
